What all share (format): in vivo
Assay [1] concerns wild, free-ranging rats. Kind of assay: Field trials of single-compound synthetic lures in tracking tunnels (tracking rate). Conditions: for attractiveness relative to peanut butter standard and control (aggregated tracking rate): tracking rate aggregated for all seven concentrations 10,000 to 0.01 ppm in fractionated coconut oil, one night, FIG. 2. As for the experimental part: Synthetic lures comprising a single compound mixed in a carrier medium (fractionated coconut oil) were presented to wild, free-ranging rats at 7 concentrations, decreasing in orders of magnitude from 10,000 ppm to 0.01 ppm. The compounds and concentrations used are set out in Table 2. Lures were presented in 1.7 mL Eppendorf microtubes secured to the inside wall of tracking tunnels using a cable tie. Inked cards were placed in each tunnel to quantify the visitation and identity of species visiting lures. Lures were randomly assigned along transects, with a minimum 25-m spacing between lures and with transects separated by 200 m. A control (fractionated coconut oil only) and standard (peanut butter) were assigned to each transect, with each transect comprising of lures presented at the same concentration. The order of transects was randomised for each trial. All lures were left in situ for one rain-free night. Lures were scored using the presence of rat tracks on inked cards to provide a proportion of inked cards receiving a visit for each lure, hereafter termed the “tracking rate”. Binomial tests were used to compare the tracking rate of each individual lure against peanut butter at the end of the trial period. Binomial tests were run in R (R Core Team 2013). Ten trials were undertaken at independent sites across the Wainuiomata and Orongorongo catchment region and within the Akatarawa and Pakuratahi Forest Parks, Wellington region (41° 15S, 175° 00E), New Zealand between 15 Jul. 2015 and 11 Nov. 2015.

The subject of assay [2] is wild, free-ranging rats. Kind of assay: Model selection / model averaging of blend-trial response variables (Visitation, Contact, Marking, Intensity). The following applies: response variable Intensity (footprint squares); Phase removed as random effect.
Assay [3] relates to wild, free-ranging rats. The description is as above. The following applies: for relative importance of variable (model averaging), Contact: response variable Contact (chew or bite marks); for relative importance of variable (model averaging), Marking: response variable Marking (urination and/or faecal marking); for relative importance of variable (model averaging), Visitation: response variable Visitation (tracking), presence/absence of compound in lure as predictor. An excerpt: (§1) Trials were designed to compare the performance of each lure relative to the best performing lure after each successive trial phase. The elimination of poorer performing lures allowed for higher levels of internal replication and the inclusion of additional multi-component blend lures to Phase Two. Lures were scored using the presence/absence of rat tracks on inked tracking cards to provide a proportion of tracking cards receiving species-specific visitations and hereafter termed the ‘tracking rate’. The tracking rate was used to direct the elimination process. Lures that were statistically less attractive than the best performing lure after Phase One trials were eliminated from subsequent trials. Three behavioural response variables were scored that were designed to quantify the strength of the visit to the respective lure: (1) the presence of urination and/or faecal marking in or on the tracking tunnel and hereafter termed ‘Marking’; (2) the presence of chew or bite marks on the microtube and/or tracking tunnel and hereafter termed ‘Contact’ and; (3) the amount of footprints on each tracking card that received a visitation. This was measured using a 10 cm×47 cm Perspex sheet with a grid made up of 1 cm^2 squares. The number of squares with species-specific tracks was calculated to provide a score, hereafter termed ‘Intensity’. Intensity was designed to identify lures that generated intensive or multiple visits by an individual or that elicited visits from multiple individuals.
A multi-model information-theoretic approach was used at the end of Phase Two to identify the models of best fit for each of the four response variables (Tracking, Marking, Contact and Intensity) and to investigate possible synergistic effects between compounds used in multi-component blends. Data for each lure comprising one or any combination of A6, B6, C6, F7 and/or 17 were collated. Model averaging was used to identify each compounds relative importance to each response variable.
Binomial tests were used to compare the performance of each lure to the best performing lure at the end of each in-field trial phase and drive the process. Tracking, Marking and Contact models were run as generalised linear mixed-effects models (GLMM) with a binomial distribution and logit link and a linear mixed-effects model (LMM) for Intensity. The presence/absence of compounds in each lure were used as predictor variables.
A ‘Global’ model was firstly generated containing all fixed-effect parameters, with ‘Site’ and/or ‘Transect’ and/or ‘Trial Phase” included as random effects. This allowed for the examination of both spatial (Site and Transect) and temporal (Trial Phase) impacts on the data. ‘Transect’ nested within ‘Site’ and ‘Trial Phase’ provided an improved model fit compared to any other random effect model, therefore all models were run with the inclusion of ‘Transect’ nested within ‘Site’ and ‘Trial Phase” as random effects. Akaike's information criterion corrected for small sample size (AICc) was used to compare models. Corresponding Akaike differences (Δi), the number of parameters (K), Akaike weights (Wi) and log-likelihoods (LL) were also calculated. As the model set was not balanced i.e., there were not equal numbers of models for each variable a cut-off of 10AICC was used (Bolker et al. 2009) to create the model averaging candidate model-sets from the relative importance of variables were derived. Correlations between the response variables used in linear regression models were examined using Dice's similarity coefficient (QS) due to the binary nature of three of the four variables (Choi et al. 2010).
Statistical significance was assumed wherever P≤0.05. All statistical analysis was run in R (R Core Team 2016), with package Ime4 (Bates et al. 2015) used for mixed-effects models and MuMIn (Barton 2016) used for AICc scores, weights, deltas, log-likelihoods and model averaging (using the dredge function).

For assay [4], the system named is wild, free-ranging rats. Kind of assay: Blend trials (Phase One and Phase Two) of single and multi-component lures in tracking tunnels. Conditions: Phase One; for performance versus top performing lure CF (binomial test): P<0.03.
Text: Lure preparation and presentation methods followed those outlined above.
For Phase One, A6, B6, C6, F7 and 17 identified as in Table 2 were presented. For example, A6 and B6 were blended together in equal parts to make a dyad lure coded AB. Each trial consisted of a single spatially stratified transect. Each strata contained one of each lure, a control (FCO) and the standard (peanut butter). The number of transect strata varied between trials according to site conditions i.e., track length and accessibility. Lures were spaced at 50 m, with the order of lures randomised within transect strata and between each trial. All lures were left in situ for two rain-free night. Ten trials were undertaken at independent sites across the Greater Wellington region and Richmond Range, Nelson, New Zealand between 11 Nov. 2015 and 25 Feb. 2016.
For Phase Two, the best performing single and dyad lures identified after Phase One were presented. In addition, all possible triad, tetrad and pentad blend combinations of A, B, C, F and I were created and trialled. […]
as §1, with “The elimination of poorer performing lures allowed for higher levels of internal replication and the inclusion of additional multi-component blend lures to Phase Two.” left out, “The tracking rate was used to direct the elimination process. Lures that were statistically less attractive than the best performing lure after Phase One trials were eliminated from subsequent trials.” left out, “Intensity was designed to identify lures that generated intensive or multiple visits by an individual or that elicited visits from multiple individuals.” left out

The values below come from patent US12075776B2, “Synthetic lures” (VICTORIA LINK LIMITED, priority 2016, dated 2024).

Take `CC(C)CCO` [A, isoamyl alcohol]: in the assay with wild, free-ranging rats [1], the “attractiveness relative to peanut butter standard and control (aggregated tracking rate)” value is listed as “more attractive than the peanut butter standard”. Also, the “relative importance of variable (model averaging), Intensity” value (“relative importance … Intensity” below) with wild, free-ranging rats [2] worked out at 0.85. Also, in the assay with wild, free-ranging rats [3], the “relative importance of variable (model averaging), Contact” value (“relative importance … Contact” for short) amounted to 0.68; the “relative importance of variable (model averaging), Marking” value (“relative importance … Marking” below) turned out to be 0.95; the “relative importance of variable (model averaging), Visitation” value (shortened to “relative importance … Visitation”) is given as 0.69.

Take `CCCCCCO` [B, 1-hexanol]: in the assay on wild, free-ranging rats [1], the “attractiveness relative to peanut butter standard and control (aggregated tracking rate)” value is “more attractive than the peanut butter standard”. In addition, in the assay on wild, free-ranging rats [4], the “performance versus top performing lure CF (binomial test)” value is “statistically weaker”. Further, the “relative importance … Intensity” value in the assay with wild, free-ranging rats [2] amounted to 0.89. Besides, in the assay with wild, free-ranging rats [3], the “relative importance … Contact” value was found to be 0.50; the “relative importance … Marking” value was 0.95; the “relative importance … Visitation” value is on record as 0.90.

In the case of `CC(=O)C(C)O` (stereo not drawn) [C, acetoin], the “attractiveness relative to peanut butter standard and control (aggregated tracking rate)” value in the assay on wild, free-ranging rats [1] is “more attractive than the peanut butter standard”. In the assay with wild, free-ranging rats [4] (10 sites, n=30 per lure, two nights, summer months), the tracking rate came to 0.20. For the same compound, the “relative importance … Intensity” value in the assay with wild, free-ranging rats [2] was determined as 0.94. Besides, in the assay with wild, free-ranging rats [3], the “relative importance … Contact” value is recorded as 0.50; the “relative importance … Marking” value is listed as 0.96; the “relative importance … Visitation” value was 0.58.

For `CC(C)CC(=O)O` [D, Isopentanoic acid], the “attractiveness relative to peanut butter standard and control (aggregated tracking rate)” value in the assay on wild, free-ranging rats [1] was “less attractive than the peanut butter standard and the control”.

Regarding `Cc1nccnc1C` [E, 2,3-dimethylpyrazine], in the assay on wild, free-ranging rats [1], the “attractiveness relative to peanut butter standard and control (aggregated tracking rate)” value was “less attractive than the peanut butter standard and the control”.

As to `CC(=O)OCC(C)C` [F, isobutyl acetate], in the assay on wild, free-ranging rats [1], the “attractiveness relative to peanut butter standard and control (aggregated tracking rate)” value is listed as “more attractive than the peanut butter standard”. Further, the “performance versus top performing lure CF (binomial test)” value in the assay on wild, free-ranging rats [4] is recorded as “statistically weaker”. In addition, the “relative importance … Intensity” value in the assay with wild, free-ranging rats [2] is given as 0.86. For the same compound, in the assay with wild, free-ranging rats [3], the “relative importance … Contact” value turned out to be 0.78; the “relative importance … Marking” value was found to be 0.987; the “relative importance … Visitation” value is given as 0.70.

On to `CC(=O)OCCC(C)C` [G, Isopentyl acetate], for which the “trend of attraction with concentration” value in the assay with wild, free-ranging rats [1] (seven concentrations 10,000 to 0.01 ppm) is given as “no trend”. Moreover, in the assay with wild, free-ranging rats [1], the “attractiveness relative to peanut butter standard and control (aggregated tracking rate)” value is “less attractive than the peanut butter standard and the control”.

As for `Cc1nc(C)c(C)nc1C` [H, Tetramethylpyrazine], the “attractiveness relative to peanut butter standard and control (aggregated tracking rate)” value with wild, free-ranging rats [1] is “less attractive than the peanut butter standard but more attractive than the control”.

In the case of `CCC(C)COC(C)=O` (stereo not drawn) [I, 2-methylbutyl acetate], the “attractiveness relative to peanut butter standard and control (aggregated tracking rate)” value in the assay with wild, free-ranging rats [1] is on record as “more attractive than the peanut butter standard”. Also, in the assay on wild, free-ranging rats [2], the “relative importance … Intensity” value is given as 0.88. Also, in the assay with wild, free-ranging rats [3], the “relative importance … Contact” value is listed as 0.48; the “relative importance … Marking” value is listed as 0.95; the “relative importance … Visitation” value is recorded as 0.84.
